{
  "source": "patent US20230365592A1",
  "about": "(Agios Pharmaceuticals, Inc., priority 2022, published 2023)",
  "data": [
    {"target": "T1, human PAH with the R408W mutation (Homo sapiens, UniProt P00439, R408W)", "T1 construct": "expressed in transfected cells", "T1 sequence (P00439 1-452 R408W)": "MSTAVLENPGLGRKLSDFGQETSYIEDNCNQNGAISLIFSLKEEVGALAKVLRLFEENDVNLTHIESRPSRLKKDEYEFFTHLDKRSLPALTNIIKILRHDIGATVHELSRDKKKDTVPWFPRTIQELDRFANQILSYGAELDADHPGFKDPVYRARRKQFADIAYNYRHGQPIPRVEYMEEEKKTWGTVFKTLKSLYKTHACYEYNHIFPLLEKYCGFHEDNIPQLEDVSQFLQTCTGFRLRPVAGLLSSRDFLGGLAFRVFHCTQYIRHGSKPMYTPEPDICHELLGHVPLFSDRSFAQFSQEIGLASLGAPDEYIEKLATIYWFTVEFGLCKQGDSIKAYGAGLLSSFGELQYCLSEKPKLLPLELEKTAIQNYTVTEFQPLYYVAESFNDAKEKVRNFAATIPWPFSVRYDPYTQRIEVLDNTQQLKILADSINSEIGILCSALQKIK", "test": "Cell Based Phenylalanine Flux Assay;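 note: after compound treatment, cells received sepiapterin plus isotope-labelled Phenylalanine for 4 hours, then labelled Tyrosine in the medium was quantified, 10-point 2-fold dilution series run in duplicate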", "details": "A375 cells expressing human PAH R408W; 24 hrs compound incubation; 13C-Tyrosine by LC-MS; average where tested multiple times; read-out: AC50", "units": {"AC50": "nM"}, "values": [
      {"compound": "Cn1ccc(-c2ncc(C(=O)N3CCc4[nH]cnc4[C@H]3c3cc4c(F)cccn4n3)o2)n1", "note": "[Example 2505, (S)-(4-(4-fluoropyrazolo[1,5-a]pyridin-2-yl)-1,4,6,7-tetrahydro-5H-imidazo[4,5-c]pyridin-5-yl)(2-(1-methyl-1H-pyrazol-3-yl)oxazol-5-yl)methanone]", "AC50": "1000 to 5000"},
      {"compound": "Cn1cc(-c2ncc(C(=O)N3CCc4[nH]cnc4[C@H]3c3cc4c(C(F)(F)F)cccn4n3)o2)cn1", "note": "[Example 2506, (S)-(2-(1-methyl-1H-pyrazol-4-yl)oxazol-5-yl)(4-(4-(trifluoromethyl)pyrazolo[1,5-a]pyridin-2-yl)-1,4,6,7-tetrahydro-5H-imidazo[4,5-c]pyridin-5-yl)methanone]", "AC50": "1000 to 5000"},
      {"compound": "FC(F)Oc1cccn2nc([C@@H]3c4nc[nH]c4CCN3c3nnc(C4CC4)o3)cc12", "note": "[Example 2509, (S)-2-cyclopropyl-5-(4-(4-(difluoromethoxy)pyrazolo[1,5-a]pyridin-2-yl)-1,4,6,7-tetrahydro-5H-imidazo[4,5-c]pyridin-5-yl)-1,3,4-oxadiazole]", "AC50": "1000 to 5000"},
      {"compound": "FC(F)(F)c1cccn2nc([C@@H]3c4nc[nH]c4CCN3c3nnc(-c4cnccn4)o3)cc12", "note": "[Example 2510, (S)-2-(pyrazin-2-yl)-5-(4-(4-(trifluoromethyl)pyrazolo[1,5-a]pyridin-2-yl)-1,4,6,7-tetrahydro-5H-imidazo[4,5-c]pyridin-5-yl)-1,3,4-oxadiazole]", "AC50": "1000 to 5000"},
      {"compound": "FC(F)(F)c1cccn2nc([C@H]3c4nc[nH]c4CCN3c3nnc(-c4cnccn4)o3)cc12", "note": "[Example 2511, (R)-2-(pyrazin-2-yl)-5-(4-(4-(trifluoromethyl)pyrazolo[1,5-a]pyridin-2-yl)-1,4,6,7-tetrahydro-5H-imidazo[4,5-c]pyridin-5-yl)-1,3,4-oxadiazole]", "AC50": "> 5000"},
      {"compound": "O=C(c1cnc(-c2cnccn2)o1)N1CCc2[nH]cnc2[C@H]1c1cc2c(F)cccn2n1", "note": "[Example 2516, (S)-(4-(4-fluoropyrazolo[1,5-a]pyridin-2-yl)-1,4,6,7-tetrahydro-5H-imidazo[4,5-c]pyridin-5-yl)(2-(pyrazin-2-yl)oxazol-5-yl)methanone]", "AC50": "1000 to 5000"},
      {"compound": "O=C(c1cnc(-c2cnccn2)o1)N1CCc2[nH]cnc2[C@@H]1c1cc2c(F)cccn2n1", "note": "[Example 2517, (R)-(4-(4-fluoropyrazolo[1,5-a]pyridin-2-yl)-1,4,6,7-tetrahydro-5H-imidazo[4,5-c]pyridin-5-yl)(2-(pyrazin-2-yl)oxazol-5-yl)methanone]", "AC50": "> 5000"},
      {"compound": "FC(F)c1cccc2cc([C@@H]3c4nc[nH]c4CCN3c3nnc(-c4cnccn4)o3)nn12", "note": "[Example 2521, (S)-2-(4-(7-(difluoromethyl)pyrazolo[1,5-a]pyridin-2-yl)-1,4,6,7-tetrahydro-5H-imidazo[4,5-c]pyridin-5-yl)-5-(pyrazin-2-yl)-1,3,4-oxadiazole]", "AC50": "1000 to 5000"},
      {"compound": "CC(F)(F)c1nnc(N2CCc3[nH]cnc3[C@H]2c2cc3cccc(C(F)F)n3n2)o1", "note": "[Example 2523, (S)-2-(1,1-difluoroethyl)-5-(4-(7-(difluoromethyl)pyrazolo[1,5-a]pyridin-2-yl)-1,4,6,7-tetrahydro-5H-imidazo[4,5-c]pyridin-5-yl)-1,3,4-oxadiazole]", "AC50": "1000 to 5000"},
      {"compound": "O=C(c1nnc(-c2c(F)cccc2F)o1)N1CCc2[nH]cnc2C1c1cc2ccccn2n1", "note": "(stereo not drawn) [Example 2524, (5-(2,6-difluorophenyl)-1,3,4-oxadiazol-2-yl)(4-(pyrazolo[1,5-a]pyridin-2-yl)-6,7-dihydro-1H-imidazo[4,5-c]pyridin-5(4H)-yl)methanone]", "AC50": "500 to 1000"}
    ]},
    {"target": "T1, human PAH with the R408W mutation", "test": "Cell Based Phenylalanine Flux Assay", "details": "A375 cells expressing human R408W PAH; 24 hrs compound incubation; 13C-Tyrosine by LC-MS; average where tested multiple times; read-out: AC50", "units": {"AC50": "nM"}, "values": [
      {"compound": "(S)-(5-(2-fluoropropan-2-yl)-1,3.4-oxadiazol-2-yl)(4-(7-fluoropyrazolo[1,5-a]pyridin-2-yl)-6,7-dihydro-1H-imidazo[4,5-c(pyridin-5(4H)-yl)methanone [Example 1256]", "AC50": "< 500"}
    ]},
    {"target": "T1, human PAH with the R408W mutation", "test": "Cell Based Phenylalanine Flux Assay", "details": "AC50, A375 cells expressing human PAH R408W; 24 hrs compound incubation; 13C-Tyrosine by LC-MS; average where tested multiple times", "units": {"AC50": "nM"}, "values": [
      {"compound": "CC(C)c1cccn2nc([C@@H]3c4nc[nH]c4CCN3c3nnc(C4CC(F)(F)C4)o3)cc12", "note": "[Example 2519, (S)-2-(3,3-difluorocyclobutyl)-5-(4-(4-isopropylpyrazolo[1,5-a]pyridin-2-yl)-1,4,6,7-tetrahydro-5H-imidazo[4,5-c]pyridin-5-yl)-1,3,4-oxadiazole]", "AC50": "1000 to 5000"}
    ]}
  ]
}
